Measurements taken from ChEMBL document CHEMBL1201862, “PubChem BioAssay data set” (2004).
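Compound exposure: 48 hours, 5 concentrations, 96-well plates. The concentration for 50% growth inhibition is given as GI50.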 Activity calls are given as the source filed them. Rule as the data show it: active = GI50 up to about 1.1 µM and inactive = higher.

How the values were obtained:
Assay in all cases: growth of human tumour cells (NCI), 48 h
786-0 = system: 786-0
A498 = system: A498
A549 = system: A549
ACHN = system: ACHN
BT-549 = system: BT-549
CAKI-1 = system: CAKI-1
CCRF-CEM = system: CCRF-CEM
COLO 205 = system: COLO 205
DU-145 = system: DU-145
EKVX = system: EKVX
HCT-116 = system: HCT-116
HCT-15 = system: HCT-15
HL-60 = system: HL-60
HOP-62 = system: HOP-62
HOP-92 = system: HOP-92
HT-29 = system: HT-29
Hs-578T = system: Hs-578T
IGROV-1 = system: IGROV-1
K562 = system: K562
KM12 = system: KM12
LOX IMVI = system: LOX IMVI
M14 = system: M14
MCF7 = system: MCF7
MDA-MB-231 = system: MDA-MB-231
MDA-MB-435 = system: MDA-MB-435
MDA-N = system: MDA-N
MOLT-4 = system: MOLT-4
Malme-3M = system: Malme-3M
NCI-H226 = system: NCI-H226
NCI-H23 = system: NCI-H23
NCI-H460 = system: NCI-H460
NCI-H522 = system: NCI-H522
NCI/ADR-RES = system: NCI/ADR-RES
OVCAR-3 = system: OVCAR-3
OVCAR-4 = system: OVCAR-4
OVCAR-5 = system: OVCAR-5
OVCAR-8 = system: OVCAR-8
PC-3 = system: PC-3
RPMI-8226 = system: RPMI-8226
RXF 393 = system: RXF 393
SF-268 = system: SF-268
SF-295 = system: SF-295
SK-MEL-28 = system: SK-MEL-28
SK-MEL-2 = system: SK-MEL-2
SK-MEL-5 = system: SK-MEL-5
SK-OV-3 = system: SK-OV-3
SN12C = system: SN12C
SNB-19 = system: SNB-19
SNB-75 = system: SNB-75
SR = system: SR
SW-620 = system: SW-620
T47D = system: T47D
TK-10 = system: TK-10
U-251 = system: U-251
UACC-257 = system: UACC-257
UACC-62 = system: UACC-62
UO-31 = system: UO-31
HCC 2998 = system: HCC 2998
SF-539 = system: SF-539

Measured: GI50

O=C1CCC(c2ccccc2)(c2ccccc2)CC1
47.4 µM: HCT-15
inactive: 786-0 > 100 µM | A498 > 100 µM | A549 49.4 µM | ACHN > 100 µM | BT-549 83.2 µM | CAKI-1 > 100 µM | CCRF-CEM 19.8 µM | COLO 205 27.9 µM | DU-145 > 100 µM | EKVX 92.3 µM | HCT-116 41.3 µM | HL-60 33.5 µM | HOP-62 > 100 µM | HOP-92 > 100 µM | HT-29 55.5 µM | Hs-578T 81.1 µM | IGROV-1 > 100 µM | K562 29.7 µM | KM12 > 100 µM | LOX IMVI > 100 µM | M14 65.8 µM | MCF7 46 µM | MDA-MB-231 > 100 µM | MDA-MB-435 > 100 µM | MDA-N 45.6 µM | MOLT-4 30.6 µM | Malme-3M > 100 µM | NCI-H226 36.6 µM | NCI-H23 57.7 µM | NCI-H460 > 100 µM | NCI-H522 71.3 µM | NCI/ADR-RES 40 µM | OVCAR-3 > 100 µM | OVCAR-4 > 100 µM | OVCAR-5 > 100 µM | OVCAR-8 > 100 µM | PC-3 73.6 µM | RPMI-8226 30.7 µM | RXF 393 > 100 µM | SF-268 > 100 µM | SF-295 > 100 µM | SK-MEL-28 > 100 µM | SK-MEL-2 > 100 µM | SK-MEL-5 30.7 µM | SK-OV-3 > 100 µM | SN12C 38.1 µM | SNB-19 > 100 µM | SNB-75 > 100 µM | SR 37.8 µM | SW-620 82.2 µM | T47D 41.5 µM | TK-10 85.9 µM | U-251 > 100 µM | UACC-257 > 100 µM | UACC-62 > 100 µM | UO-31 65 µM

CC(C)(C)OC(=O)NC(Cc1ccc(OC(C)(C)C)cc1)C(=O)N[C@H]1CC[C@H](C(=O)O)C1 (stereo partly specified)
> 100 µM: HCT-15
inactive: 786-0 > 100 µM | A498 > 100 µM | A549 > 100 µM | ACHN > 100 µM | BT-549 45 µM | CCRF-CEM > 100 µM | COLO 205 > 100 µM | DU-145 > 100 µM | EKVX > 100 µM | HCC 2998 > 100 µM | HCT-116 > 100 µM | HL-60 > 100 µM | HOP-62 > 100 µM | HT-29 > 100 µM | Hs-578T > 100 µM | IGROV-1 > 100 µM | K562 > 100 µM | KM12 > 100 µM | LOX IMVI > 100 µM | M14 > 100 µM | MCF7 > 100 µM | MDA-MB-231 > 100 µM | MDA-MB-435 > 100 µM | MDA-N > 100 µM | MOLT-4 > 100 µM | NCI-H226 > 100 µM | NCI-H23 > 100 µM | NCI-H460 > 100 µM | NCI-H522 > 100 µM | NCI/ADR-RES > 100 µM | OVCAR-5 > 100 µM | OVCAR-8 > 100 µM | PC-3 89.1 µM | RPMI-8226 > 100 µM | SF-268 > 100 µM | SF-295 > 100 µM | SF-539 > 100 µM | SK-MEL-28 > 100 µM | SK-MEL-2 > 100 µM | SK-MEL-5 > 100 µM | SK-OV-3 > 100 µM | SN12C > 100 µM | SNB-19 > 100 µM | SNB-75 > 100 µM | SR > 100 µM | SW-620 > 100 µM | T47D > 10 µM | TK-10 > 100 µM | U-251 > 100 µM | UACC-257 > 100 µM

C=CCN(c1cc(OC)c2[nH]c(C(=O)OCC)c(C)c2c1[N+](=O)[O-])S(C)(=O)=O
inactive: 786-0 19 µM | A498 25.8 µM | A549 22 µM | ACHN 26.1 µM | BT-549 22.1 µM | CAKI-1 34 µM | CCRF-CEM 26.3 µM | COLO 205 15.5 µM | DU-145 24.7 µM | EKVX 18.5 µM | HCC 2998 45.5 µM | HCT-116 18.2 µM | HL-60 15.8 µM | HOP-62 35.6 µM | HOP-92 18.6 µM | HT-29 18.2 µM | Hs-578T 17.8 µM | IGROV-1 33.7 µM | K562 15.1 µM | KM12 23.5 µM | LOX IMVI 19.3 µM | M14 30.8 µM | MCF7 22.4 µM | MDA-MB-231 11 µM | MDA-MB-435 24.7 µM | MDA-N 18.1 µM | MOLT-4 12.6 µM | Malme-3M 15.7 µM | NCI-H23 28.4 µM | NCI-H460 30.3 µM | NCI-H522 17.7 µM | NCI/ADR-RES 23.6 µM | OVCAR-3 23.8 µM | OVCAR-4 32.4 µM | OVCAR-5 29.3 µM | OVCAR-8 28.6 µM | PC-3 18 µM | RPMI-8226 14.6 µM | RXF 393 7.23 µM | SF-268 26.4 µM | SF-295 28.5 µM | SF-539 33.6 µM | SK-MEL-28 43.2 µM | SK-MEL-2 25.1 µM | SK-MEL-5 16.1 µM | SK-OV-3 36.3 µM | SN12C 19.6 µM | SNB-19 28.4 µM | SNB-75 15.2 µM | SW-620 34.3 µM | T47D 15.2 µM | TK-10 54.1 µM | U-251 16.1 µM | UACC-257 39.9 µM | UACC-62 26.1 µM | UO-31 21.5 µM
active: NCI-H226 1.04 µM
25.6 µM: HCT-15
